Source: US8865672B2, “Prevention of tissue ischemia and related methods” (The United States of America, as represented by the …, priority 2006, dated 2014)

Columns and labels:
HAVSMC = assay: 3D collagen matrix contraction assay, human aortic VSMC; type: cell-based; settings: for TSP1 block of NO relaxation of FCS-induced gel contraction: human aortic VSMC pretreated with 10 μM morpholino
Procedure: Type I collagen gel (3 mg/ml) with 10×M199 (Gibco, Grand Island, N.Y.) at a 10:1 ratio of collagen to medium was prepared, pH balanced with NaOH and seeded with either HAVSMC or VSMC harvested from aortic segments from C57B16 WT or TSP1 null mice (50,000 cells in 75 μl of gel/well) and aliquoted to 96-well plates (Nunc, Denmark). Plates were incubated for 12 h 37° C. and 5% CO2 allowing for gelation and cell spreading, gently released from the well walls and incubated in serum and additive deficient growth medium with 0.1% BSA in the presence of the indicated treatment agents for 10 h. Contraction was determined by measuring the diameter in perpendicular planes (x, y) of each disk, an average obtained and surface area calculated as (d/2)^2π. Experiments were performed in triplicate. Results represent the mean±SD of at least three separate experiments.
(§1) Human aortic VSMC were plated onto 12-well culture plates (Nunc) at a density of 5×10^4 cells/well in SM-GM+2% FCS and cultured until approximately 90% confluent. A translation-blocking antisense morpholino oligonucleotide complementary to human and murine CD47 ([…]; SEQ ID NO: 21) and a five-base mismatch control (CGTgACAGcCAcGACCgACTGCgCA; SEQ ID NO: 22) were obtained from GeneTools (Philomath, Oreg.). Cultured cells were treated as per the manufacturer's recommendation with morpholinos (10 μM) and utilized within 48 hours of treatment.

[1] = system: random myocutaneous flaps in mice; assay: Random myocutaneous (McFarlane) flap model; type: in vivo, mouse
Procedure: WT and TSP1 null mice were matched for sex and age. Under isoflurane inhalation anesthesia 1×2 cm random myocutaneous flaps were raised. Where indicated, animals received either L-NAME (0.5 mg/ml) or ISDN (1 mg/ml) ad libitum in drinking water during the post-operative period. On postoperative day 7, the animals were again anesthetized with inhalation isoflurane and flaps evaluated. Viable and necrotic areas of the flaps were determined by color, refill, eschar, and the pin-prick test. Outlines of viable and nonviable areas were traced using transparent film and the area of flap necrosis versus total flap area determined as described (Yu et al., Proc Natl Acad Sci USA 102:10999-11004, 2005).
Wild type, TSP1 null, CD36 null and CD47 null mice were matched for sex and age underwent random dorsal myocutaneous flaps as described (Isenberg et al., Blood 2006; Example 2) and tissue harvested on postoperative day 7.
The necrotic area of the flap was determined as described (Isenberg et al., Blood. Nov. 2, 2006) Animals were then euthanized and flaps excised, fixed in 10% paraformaldehyde and processed for histology.
Random myocutaneous flap wound beds and/or ischemic hindlimb vastus medialis muscle was assessed at indicated time points (72 hours or 7 days post-operatively) for visible alterations in vascularity under 5× magnification. An arbitrary though strictly applied definition of countable vessels was employed to highlight both individual vessels and vascular ramifications. In any given vascular plexus visible by 5× magnification a vessel was defined as that segment traversing two branches. Visible vessels without ramifications and branches were counted once. Treatment status and genetic background of tissue images was not known by the reviewer.
Animals underwent creation of a random myocutaneous (McFarlane) flap as previously described (Isenberg et al., Blood 109:1945-1952, 2007). Some animals received either ISDN (1 mg/mL) or L-NAME (0.5 mg/ml) ad libitum in the drinking water during the post-operative interval.
Flap soft tissue units and underling wound beds were injected with control vehicle (normal saline), a CD47 morpholino or a control morpholino (10 μM) in sterile saline. Flap survival was determined as described.

CD47 = assay: Western analysis of CD47 in HUVEC; type: cell-based, human; settings: morpholino 0.1-10 μM, 48 h
Procedure: HUVEC were plated in 12-well culture plates (5×10^4 cells/well) (Nunc, Denmark) in full growth medium and treated over 48 h with indicated doses of CD47 and control morpholino. Cells were subsequently washed twice with PBS and lysed immediately in 1×SDS sample buffer containing 10 µg/mL leupeptin, […] aprotinin, 1 mM Na3VO4, and 40 mM NaF. Lysates prepared in the SDS sample buffer described above were electrophoresed in 4-12% BisTris NuPAGE gels and transferred to PVDF membranes prior to immunoblotting with a monoclonal antibody to CD47 (clone B6H12, Lab Visions, Inc, Fremont, Calif.). The membrane was stripped and reprobed with a monoclonal antibody against β-actin (Sigma-Aldrich, St. Louis, Mo.).

human aortic VSMC = assay: Intracellular cGMP in human aortic VSMC after morpholino; type: cell-based; settings: for TSP1 inhibition of NO-driven cGMP accumulation: human aortic VSMC pre-treated with morpholino
Procedure: as §1
cGMP was determined in human aortic VSMC via immunoassay as described (Isenberg et al., Blood 2006; Example 2). In some situations cells were pretreated with a CD47 or control morpholino prior to assay.

[2] = system: random dorsal cutaneous flaps in white hairless Yucatan miniature pigs; assay: Porcine random cutaneous flap model; type: in vivo, pig; settings: for flap necrosis: 2×10 cm flaps, injection at surgery
Procedure: Animals underwent shaving of the dorsal surface hair and cleansing of the skin with soap and alcohol. Random dorsal cutaneous flaps 2×10×0.5 cm were elevated and immediately sutured in place with interrupted 4-0 nylon suture (Ethicon, Johnson & Johnson, N.J.). Treated flaps were injected with the indicated amounts of drug in sterile normal saline. On the 3 and 7 post-operative days tissue survival was determined and flaps excised for histology. In some instances animals received intravenous fluorescein prior to euthanasia and flap perfusion assessed under ultra violet illumination.
Clinical assessment of flap perfusion was performed with notation of color, capillary refill and bleeding to needle stick being recorded. Flap dimensions were then traced onto a clear plastic sheet and with demarcation of viable and non-viable areas made.
The internal jugular vein and common carotid arteries were cannulated and the animals perfused with a volume of 5 L heparinized (50 U/mL) normal saline heated to 50° C. A mixture of India ink and gelatin (5%) heated to 50° C. (1 L) was administered by gently pressing and then releasing the plunger of the syringe to simulate the arterial pulse. The flaps were excised and placed in 100% glycerin and stored at 4° C. for 10 days. During this time flap tissue became thin, desiccated and transparent and allowed visualization of the vascular architecture under direct transillumination.

[3] = WT mice 14-18 months, injected to flap and wound bed
[4] = wild type flaps, local injection, day 7
[5] = wild type flaps, morpholino 10 μM

Substance | TSP1 block of NO relaxation of FCS-induced gel contraction (HAVSMC) | flap tissue survival ([1]; ApoE-null mice 12-16 months, high fat diet, day 7) | flap tissue survival [1, 3] | flap mitochondrial viability ([1]; aged WT flaps) | remodeling of collateral flap vessels ([1]; aged WT flaps) | flap tissue survival [1, 4] | CD47 immunohistochemical staining of flaps [1, 5] | wound bed vascularity [1, 5] | CD47 expression (Western) (CD47) | TSP1 inhibition of NO-driven cGMP accumulation (human aortic VSMC) | flap necrosis [2] | flap tissue survival ([2]; compared to untreated flaps) | India ink staining of flap vessels ([2]; post-operative day 3) | inhibitory activity of NO on gel contraction (HAVSMC; HAVSMC, DETA/NO 10 μM, TSP1 2.2 nM) | NO-driven cGMP flux (human aortic VSMC; untreated VSMC)
CGTCACAGGCAGGACCCACTGCCCA (all phosphorodiamidate morpholino (PMO)) [CD47 morpholino] | TSP1 was not able to block this relaxation | 84±7% | 91±4% | markedly increased | substantial remodeling of existing collateral flap vessels | ~100% | decreased protein staining | substantial increases in visible blood vessels | Effective dose-dependent suppression of CD47 | essentially blind to the inhibitory effects of TSP1 | 12±3% | significantly more tissue survival |  |  | 
CGTgACAGcCAcGACCgACTGCgCA (antisense CGTGACAGCCACGACCGACTGCGCA; all phosphorodiamidate morpholino (PMO)) [control morpholino, reference compound] | remained sensitive to TSP1 inhibition |  | degrees of tissue necrosis comparable to untreated aged WT animals |  |  | necrosis comparable to that for untreated wild type flaps |  |  | did not show suppression of CD47 | retained sensitivity to inhibition | 34±6% |  | lack of India ink staining of vessels |  | 
TSP1: thrombospondin-1 prepared from human platelets |  |  |  |  |  |  |  |  |  |  |  |  |  | completely abrogated | complete inhibition of an NO-driven cGMP flux
